pEC50: −log10 of the molar value. Read-outs that look alike come from different tables or passages of the source.
How the values were obtained:
Vero (monkey kidney) = details: cited from earlier work
CYP = CYP inhibition
[1] = in vivo
Zika = details: Vero76 (monkey kidney); cited from earlier work
VSV = details: HuH7 (human hepatocellular carcinoma); cited from earlier work
Influenza B (Brisbane) = details: MDCK (canine kidney); cited from earlier work
[2] = in vivo; remark: listed apart in the source
CMV = details: Primary Human Fibroblasts; cited from earlier work
[3] = Adverse events in subjects receiving brequinar intravenously once a week; details: IV once a week, 209 subjects
RNA virus = experiment: Daily brequinar for five days in subject infected with an RNA virus (Example 19); format: in vivo; details: single daily dose for five consecutive days, first peak in brequinar level
Experimental: The mechanism by which administration of a DHODH inhibitor according to a daily dosing regimen inhibits viral replication is illustrated below. […] Throughout the course of the dosing regimen, levels of intracellular pyrimidines, such as uridine, and viral replication are measured.

Ebola = details: HeLa (human cervical tumor); cited from earlier work
IBRS-2 (swine kidney) = details: cited from earlier work
[4] = Cytotoxicity in H1-HeLa cells (XTT); details: human, H1-HeLa cells (CRL-1958)
HRV1A strain 2060 = experiment: Rhinovirus antiviral assay, inhibition of virus-induced cell killing (XTT) in H1-HeLa cells; format: cell-based; details: Enterovirus
DHODH [5] = target: DHODH (Homo sapiens, UniProt Q02127); details: concentrations >1 μM
Sequence of DHODH (Homo sapiens, UniProt Q02127) (Q02127 whole entry): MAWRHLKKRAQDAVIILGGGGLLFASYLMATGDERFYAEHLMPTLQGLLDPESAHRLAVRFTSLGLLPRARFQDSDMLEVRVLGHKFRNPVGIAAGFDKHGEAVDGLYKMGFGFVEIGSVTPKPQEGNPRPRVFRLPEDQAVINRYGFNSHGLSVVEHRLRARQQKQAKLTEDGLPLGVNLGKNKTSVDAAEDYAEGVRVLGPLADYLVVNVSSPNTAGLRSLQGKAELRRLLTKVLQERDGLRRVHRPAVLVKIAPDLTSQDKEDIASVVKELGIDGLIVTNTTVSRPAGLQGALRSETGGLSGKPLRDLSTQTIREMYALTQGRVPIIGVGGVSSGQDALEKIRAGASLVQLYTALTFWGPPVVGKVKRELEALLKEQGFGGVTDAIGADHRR

MDCK (canine kidney) = details: H1N1(BIRFLU) row; cited from earlier work
Yellow Fever = details: Vero (monkey kidney); cited from earlier work
[6] = system: HuH7 (human hepatocellular carcinoma); details: cited from earlier work
in vitro = details: monkey, CC50, Vero E6
solid tumor malignancies = details: 5-day period followed by 3-week gap, or once per week for three weeks followed by 1-week gap; cited from earlier work
DHODH [7] = system: DHODH
Vero76 (monkey kidney) = details: Vero76, Zika row; cited from earlier work
[8] = system: A549 (human alveolar basal epithelial); details: A549, Dengue row; cited from earlier work
SARS-CoV-2 = experiment: microbe, parasite or virus in culture; format: cell-based
Dengue = details: A549 (human alveolar basal epithelial); cited from earlier work
[9] = system: A549 (human alveolar basal epithelial); details: A549, H1N1(BIRFLU) row; cited from earlier work
[10] = system: Primary Human Fibroblasts; details: CMV row; cited from earlier work
[11] = system: A549 or HEp-2 (human epithelial); details: A549 or HEp-2, RSV row; cited from earlier work
[12] = system: Influenza A H1N1(California); details: MDCK (canine kidney); cited from earlier work
FMDV (O/MY98/BY/2010) = details: cited from earlier work
[13] = system: TZM-bl(human cervical tumor); details: HIV1 row; cited from earlier work
[14] = system: Respiratory Syncytial (RSV); details: A549 or HEp-2 (human epithelial); cited from earlier work
[15] = system: acute myeloid leukemia (AML); experiment: Clinical response of patients with AML to brequinar-containing composition; format: in vivo, human
FMDV (A/GD/MM/2013) = details: cited from earlier work
HIV1 = details: HIV1, TZM-bl(human cervical tumor); cited from earlier work
AML = details: cited from earlier work
[16] = system: 16HBE (human bronchial epithelial); details: H1N1 (New Caledonia) row; cited from earlier work
[17] = system: Influenza A H1N1 (New Caledonia); details: 16HBE (human bronchial epithelial); cited from earlier work
Influenza A H3N2 = details: Influenza A H3N2, MDCK (canine kidney); cited from earlier work
Influenza A H1N1(BIRFLU) [18] = details: MDCK (canine kidney); cited from earlier work
Influenza A H1N1(BIRFLU) [19] = details: A549 (human alveolar basal epithelial); cited from earlier work
in vivo = details: rodents

Cc1c(-c2ccc(-c3ccccc3F)cc2)nc2ccc(F)cc2c1C(=O)O [brequinar, 6-fluoro-2-(2′-fluoro-1,1′ biphenyl-4-yl)-3-methyl-4-quinoline carboxylic acid]
CC50 (Vero (monkey kidney)): > 50 µM | CYP inhibition (CYP): Does not inhibit CYP | equivalence of oral and IV formulations [1]: oral and IV formulations are equivalent | pEC50 (Zika): 7.10 | pEC50 (VSV): 7.85 | pEC50 (Influenza B (Brisbane)): 6.60 | cumulative effect of repeated doses [2]: No cumulative effective of repeated doses | pEC50 (CMV): 6.10 | Infection: No. of Patients [3]: 7 | Infection: No. of Patients Experiencing the AE, Max Grade 1 [3]: 4 | Infection: No. of Patients Experiencing the AE, Max Grade 2 [3]: 3 | Infection: No. of Patients Experiencing the AE, Max Grade 3 [3]: 0 | Infection: No. of Patients Experiencing the AE, Max Grade 4 [3]: 0 | Infection: Percent [3]: 3.3% | intracellular pyrimidine levels (RNA virus): dramatic decrease in the intracellular pyrimidine pool | pEC50 (Ebola): 7.00 | CC50 (IBRS-2 (swine kidney)): 100 µM | CC50 at 3 days [4]: 300 nM | pEC50 (HRV1A strain 2060): 7.30 | DHODH inhibition (DHODH [5]): almost completely inhibited | CC50 (MDCK (canine kidney)): > 50 µM | pEC50 (Yellow Fever): 7.70 | CC50 [6]: > 25 µM | CC50 at 3 days (in vitro): > 50 µM | efficacy in solid tumor malignancies (solid tumor malignancies): ineffective | DHO plasma level threshold achieved (DHODH [7]; human, in vivo): 133 ng/mL | time to achieve DHO plasma level threshold (DHODH [7]; patient with AML of Example 14): less than 2 hours | CC50 (Vero76 (monkey kidney)): > 50 µM | CC50 [8]: > 5 µM | E(Max) (SARS-CoV-2): 88.2 | lowering of the EC50 of remdesivir by brequinar (SARS-CoV-2): > 40 fold | EC90 (SARS-CoV-2; Severe acute respiratory syndrome coronavirus 2, Vero C1008): 345 nM | Emax (SARS-CoV-2; Severe acute respiratory syndrome coronavirus 2, Vero C1008, Vero E6, read-out: maximal inhibitory activity (Emax) compared to the no infection control): 88.2% | pEC50 (Dengue): 7.11 | CC50 [9]: > 50 µM | CC50 [10]: > 50 µM | CC50 [11]: > 10 µM | pEC50 [12]: 6.11 | pEC50 (FMDV (O/MY98/BY/2010)): 4.52 | CC50 [13]: > 30 µM | pEC50 [14]: 7.28 | response ([15]; first patient (Example 12): reduction in bone marrow blast count, improved extramedullary hematopoiesis, more differentiated peripheral blasts): positive response | response ([15]; patient of Example 14: trend towards differentiation of peripheral blasts): positive response | response ([15]; second patient (Example 13): lowering of peripheral blasts, increase in absolute neutrophil count, greater differentiation): positive response | pEC50 (FMDV (A/GD/MM/2013)): > 5.52 | pEC50 (HIV1): 7.40 | toxicity (AML; daily administration of high doses): weight loss, anemia, and thrombocytopenia | leukemia-initiating cell activity (AML; only when elevated plasma levels are maintained for extended periods): decreases leukemia-initiating cell activity | CC50 [16]: > 50 µM | pEC50 [17]: 6.85 | pEC50 (Influenza A H3N2): 6.21 | pEC50 (Influenza A H1N1(BIRFLU) [18]): 6.24 | pEC50 (Influenza A H1N1(BIRFLU) [19]): 6.85 | Kp (in vivo): ~0.5
